Reference: PubChem BioAssay (NCI)
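Five compound concentrations were applied to cells in 96-well plates for 48 hours; endpoints were derived by simple linear interpolation of the resulting dose-response curve. The concentration for 50% growth inhibition is given as GI50. TGI marks complete inhibition of growth.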

Columns and labels:
Test in all cases: DTP human tumour cell line panel, 48 h
SK-MEL-5 melanoma = system: SK-MEL-5 melanoma
SF-295 CNS = system: SF-295 CNS
RXF 393 renal = system: RXF 393 renal
HOP-62 NSCLC = system: HOP-62 NSCLC
K-562 leukemia = system: K-562 leukemia
OVCAR-4 ovarian = system: OVCAR-4 ovarian
SN12C renal = system: SN12C renal
MALME-3M melanoma = system: MALME-3M melanoma
U251 CNS = system: U251 CNS
MOLT-4 leukemia = system: MOLT-4 leukemia
HCT-116 colon = system: HCT-116 colon
HCC-2998 colon = system: HCC-2998 colon
NCI-H522 lung = system: NCI-H522 lung
BT-549 breast = system: BT-549 breast
OVCAR-8 ovarian = system: OVCAR-8 ovarian
SF-268 CNS = system: SF-268 CNS
LOX IMVI melanoma = system: LOX IMVI melanoma
SK-MEL-28 melanoma = system: SK-MEL-28 melanoma
ACHN renal = system: ACHN renal
MDA-MB-231 breast = system: MDA-MB-231 breast
SR leukemia = system: SR leukemia
DU-145 prostate = system: DU-145 prostate
T-47D breast = system: T-47D breast
SNB-19 CNS = system: SNB-19 CNS
A498 renal = system: A498 renal
PC-3 prostate = system: PC-3 prostate
HT29 colon = system: HT29 colon
NCI-H226 lung = system: NCI-H226 lung
M14 melanoma = system: M14 melanoma
KM12 colon = system: KM12 colon
HCT-15 colon = system: HCT-15 colon
COLO 205 colon = system: COLO 205 colon
OVCAR-3 ovarian = system: OVCAR-3 ovarian
SK-OV-3 ovarian = system: SK-OV-3 ovarian
UACC-62 melanoma = system: UACC-62 melanoma
RPMI-8226 leukemia = system: RPMI-8226 leukemia
MCF7 breast = system: MCF7 breast
IGROV1 ovarian = system: IGROV1 ovarian
786-0 renal = system: 786-0 renal
EKVX NSCLC = system: EKVX NSCLC
SK-MEL-2 melanoma = system: SK-MEL-2 melanoma
NCI/ADR-RES ovarian = system: NCI/ADR-RES ovarian
MDA-MB-435 = system: MDA-MB-435
NCI-H23 lung = system: NCI-H23 lung
HL-60(TB) leukemia = system: HL-60(TB) leukemia
A549 NSCLC = system: A549 NSCLC
SF-539 CNS = system: SF-539 CNS
HOP-92 NSCLC = system: HOP-92 NSCLC
NCI-H460 lung = system: NCI-H460 lung
UO-31 renal = system: UO-31 renal
OVCAR-5 ovarian = system: OVCAR-5 ovarian
HS 578T breast = system: HS 578T breast
TK-10 renal = system: TK-10 renal
SW-620 colon = system: SW-620 colon
CAKI-1 renal = system: CAKI-1 renal
CCRF-CEM leukemia = system: CCRF-CEM leukemia
SNB-75 CNS = system: SNB-75 CNS

## Cc1ccc(Cl)cc1-c1nc(N)nc(Nc2ccc(Br)cc2)n1
SK-MEL-5 melanoma
  GI50: 41.1 nM
  TGI: > 100000 nM
SF-295 CNS
  GI50: 41 nM
  TGI: > 100000 nM
RXF 393 renal
  GI50: 30.9 nM
  TGI: 3990 nM
HOP-62 NSCLC
  GI50: 72.3 nM
  TGI: > 100000 nM
K-562 leukemia
  GI50: 42.2 nM
  TGI: > 100000 nM
OVCAR-4 ovarian
  GI50: 274 nM
  TGI: > 100000 nM
SN12C renal
  GI50: 62.8 nM
  TGI: > 100000 nM
MALME-3M melanoma
  GI50: 70.3 nM
  TGI: > 100000 nM
U251 CNS
  GI50: 46.1 nM
  TGI: 8720 nM
MOLT-4 leukemia
  GI50: 88.3 nM
  TGI: > 22100 nM
HCT-116 colon
  GI50: 43.5 nM
  TGI: > 100000 nM
HCC-2998 colon
  GI50: 160 nM
NCI-H522 lung
  GI50: 33.2 nM
BT-549 breast
  GI50: 58.1 nM
OVCAR-8 ovarian
  GI50: 74.5 nM
  TGI: > 100000 nM
SF-268 CNS
  TGI: > 100000 nM
LOX IMVI melanoma
  GI50: 68.7 nM
  TGI: > 100000 nM
SK-MEL-28 melanoma
  GI50: 126 nM
  TGI: > 100000 nM
ACHN renal
  GI50: 91.1 nM
  TGI: > 100000 nM
MDA-MB-231 breast
  GI50: 139 nM
  TGI: > 100000 nM
SR leukemia
  GI50: 36.1 nM
  TGI: > 100000 nM
DU-145 prostate
  GI50: 69 nM
  TGI: > 56500 nM
T-47D breast
  GI50: 22600 nM
  TGI: > 100000 nM
SNB-19 CNS
  GI50: 83.2 nM
  TGI: > 100000 nM
A498 renal
  GI50: 32.6 nM
  TGI: 2470 nM
PC-3 prostate
  GI50: 53.8 nM
  TGI: > 100000 nM
HT29 colon
  GI50: 36.5 nM
NCI-H226 lung
  GI50: 1740 nM
M14 melanoma
  GI50: 41.4 nM
  TGI: > 100000 nM
KM12 colon
  GI50: 50.3 nM
  TGI: > 100000 nM
HCT-15 colon
  GI50: 53.5 nM
  TGI: > 100000 nM
COLO 205 colon
  GI50: 45.4 nM
  TGI: 254 nM
OVCAR-3 ovarian
  GI50: 31.7 nM
SK-OV-3 ovarian
  GI50: 51.7 nM
  TGI: 21000 nM
UACC-62 melanoma
  GI50: 59.4 nM
  TGI: > 100000 nM
RPMI-8226 leukemia
  GI50: 85.1 nM
  TGI: > 100000 nM
MCF7 breast
  GI50: 45.6 nM
  TGI: > 100000 nM
IGROV1 ovarian
  GI50: 150 nM
  TGI: > 100000 nM
786-0 renal
  GI50: 59.6 nM
  TGI: > 100000 nM
EKVX NSCLC
  GI50: 667 nM
  TGI: > 100000 nM
SK-MEL-2 melanoma
  GI50: 69.2 nM
  TGI: > 100000 nM
NCI/ADR-RES ovarian
  GI50: 34.7 nM
  TGI: 208 nM
MDA-MB-435
  GI50: 22.2 nM
  TGI: 59.8 nM
NCI-H23 lung
  GI50: 73.9 nM
HL-60(TB) leukemia
  GI50: 30.5 nM
A549 NSCLC
  GI50: 66.3 nM
  TGI: > 100000 nM
SF-539 CNS
  GI50: 40.6 nM
  TGI: > 29000 nM
HOP-92 NSCLC
  GI50: 2280 nM
  TGI: > 100000 nM
NCI-H460 lung
  GI50: 38.5 nM
  TGI: > 38700 nM
UO-31 renal
  GI50: 73.3 nM
  TGI: > 100000 nM
OVCAR-5 ovarian
  GI50: 358 nM
  TGI: > 100000 nM
HS 578T breast
  GI50: 45.5 nM
  TGI: > 48500 nM
TK-10 renal
  GI50: 3290 nM
  TGI: > 100000 nM
SW-620 colon
  GI50: 40.8 nM
  TGI: > 100000 nM
CAKI-1 renal
  GI50: 19200 nM
  TGI: > 100000 nM
CCRF-CEM leukemia
  GI50: 44.4 nM
SNB-75 CNS
  GI50: 29 nM
  TGI: > 100000 nM
